According to patent publication US20100311714A1, “1H-IMIDAZO[4,5-c]QUINOLINONE COMPOUNDS” (priority 2009, published 2010):
Values after ≈ are worked out from the molar mass of the structure shown.

Key:
[1] = tested on: PKB Ser473 phosphorylation in Rat1-myr-HA-p110 alpha cells; experiment: Reverse protein array, PKB Ser473 phosphorylation in Rat1-myr-HA-p110 alpha cells; type: cell-based; details: Rattus norvegicus, 0.5 h, 30 minutes compound incubation, read-out: p-PKB/IC50_alpha
Description: (§1) No. 15140-114) and 10 μg/ml Puromycine (Sigma, cat. No. P9620).
(§2) The Rat1-myr-HA-p110 alpha, beta and delta cells were trypsinized and counted with a CASY TT cell counter (Schärfe System GmbH, Reutlingen Germany). The cells were diluted in fresh DMEM complete medium and 3×10^4 cells/150 μl/well seeded in 96-well TPP-tissue culture plates (TPP, cat. No. 92096). The plates were incubated at 37° C. and 5% CO2 under humidified condition for at least 20 h. Compound of formula I working solutions were prepared freshly as serial 8 step dilutions (vol/vol) in DMSO on the day of the experiment. The working solutions were further diluted 1/500 in cell culture medium to get final compound concentrations of 10, 3.333, 1.111, 0.370, 0.123, 0.041, 0.014, 0.005 μM. The final DMSO concentration was kept constant at 0.2%. cell culture medium containing 0.2% DMSO was used as vehicle treatment control. Post incubation, the cells were treated with the serial compound dilution. 50 μl of the compound medium mixture was added to the wells containing cells and 150 μl DMEM medium and incubated for 30 minutes (37° C., 5% CO2). After 30 minutes of incubation, the medium mixture was quickly removed by aspiration. For cell lysis, a mixture of 10% CLB1 CeLyA lysis buffer (Zeptosens, cat. No. 9000), 90% CSBL1 CeLyA spotting buffer (Zeptosens, cat. No. 9020) was freshly prepared and supplemented with 1% Octyl β-D-glucopyranoside (SIGMA, cat. No. 08001-5G) and 1 mM Na-Orthovanadate (Sigma, cat No. S-6508). 50 μl of the described lysis buffer mix was added to each well, followed by 10 minutes of incubation on ice. After an additional freeze-thaw cycle, another 50 μl of the lysis buffer mix without Octyl β-D-glucopyranoside was added to the wells, and 90 μl of the cell lysate was transferred to a 96-well V-bottom plate (Fisher Scientific, cat. No. 6067Y), followed by a centrifugation step (5 min, 1500 rpm at 19° C. in an Eppendorf 5810R centrifuge) to remove the unlysed cell debris.
(§3) The samples were spotted onto ZeptoMARK® PWG protein microarray chips (Zeptosens, Witterswil, Switzerland) with the piezoelectric microdispense-based, non-contact Nano-Plotter 2.1 (GeSiM, Grosserkmannsdorf, Germany). Each sample was spotted at 4 different sample concentrations (d1=100%, d2=75%, d3=50%, d4=25%) by diluting the cell lysate with the corresponding volume of lysis buffer mix. After spotting the ZeptoMARK® protein microarrays, the chips are incubated for 1 hour at 37° C. To receive a uniform blocking result, the CeLyA blocking buffer BB1 (Zeptosens, cat. No. 9040) is administered via an ultrasonic nebulizer. After 20 minutes of blocking the chips are extensively rinsed with deionized water (Milli-Q quality, 18MΩ×cm) and dried in a nitrogen air flow.
(§4) After the sample spotting and blocking procedure, the ZeptoMARK® chips were transferred to the ZeptoCARRIER (Zeptosens, cat. No. 1100), whose six flow cells individually address the six arrays on a chip, and washed twice with 200 μl CAB1 CeLyA assay buffer (Zeptosens, cat. No. 9032). The assay buffer was then aspirated and each compartment incubated with 100 μl of the primary target antibody (pAkt Ser473; CST#9271) at RT over night. Post incubation, the primary antibody was removed, the arrays washed twice with CAB1 buffer and further incubated with 100 μl of Alexa fluor 647-labeled anti rabbit IgG Fab fragments (Invitrogen; #Z25305) for one hour at RT in the dark. After incubation, the arrays were washed twice with 200 μl CAB1 buffer. The fluorescence of the target-bound Fab fragments is read out on the ZeptoReader (Zeptosens, Witterswil, Switzerland) using a laser (excitation wavelength 635 nm) and a CCD camera. The fluorescence signal was assessed with exposure times of 1, 3, 5 and 10 seconds, depending on the intensity of the signal. The resulting four images taken per array are stored as 16-bit TIF files. […]

[2] = tested on: PKB Ser473 phosphorylation in Rat1-myr-HA-p110 delta cells; experiment: Reverse protein array, PKB Ser473 phosphorylation in Rat1-myr-HA-p110 delta cells; type: cell-based; details: Rattus norvegicus, 0.5 h, 30 minutes compound incubation, read-out: p-PKB/IC50_delta
Description: as §1, §2, §3, §4

[3] = tested on: PKB Ser473 phosphorylation in Rat1-myr-HA-p110 beta cells; experiment: Reverse protein array, PKB Ser473 phosphorylation in Rat1-myr-HA-p110 beta cells; type: cell-based; details: Rattus norvegicus, 0.5 h, 30 minutes compound incubation, read-out: p-PKB/IC50_beta
Description: as §1, §2, §3, §4

[4] = High-throughput equilibrium solubility at pH 6.8; type: physicochemical; details: pH 6.8, aqueous buffer, thermodynamic from solid; read-out: HT-Eq Sol/pH 6.8
Source text: (§5) The physicochemical properties of relevance for the absorption of the compound, such as the solubility and the membrane permeability, especially at a pH close to neutral pH can be measured using the procedure as described by L. ZHOU et al. in JOURNAL OF PHARMACEUTICAL SCIENCES, VOL. 96, NO. 11, p. 3052-3071 (2007) for the solubility at pH 6.8 and the procedure as described by F. Wohnsland and B. Faller in Journal of Medicinal Chemistry Vol 44, p. 923-930 (2001) for the Parallel Artificial Membrane Permeability Assay (PAMPA) at pH 6.8.

[5] = Parallel Artificial Membrane Permeability Assay (PAMPA) at pH 6.8; type: physicochemical
Source text: as §5
The following permeability log Pe was measured for compound of formula (I) as exemplified below: […]

[6] = tested on: S6 Ribosomal Protein phosphorylation Ser235/236 in TSC1 null mouse embryo fibroblast (MEF) cells; experiment: Reverse protein array, S6 Ribosomal Protein phosphorylation in TSC1 null MEF cells; type: cell-based; details: 1 h, TSC1-/- MEFs, 60 minutes, read-out: p-S6 IC50
Description: TSC1−/− MEFs cells (provided by D. Kwiatkowski), were cultivated in Dulbecco's modified Eagle's medium (DMEM high Glucose, GIBCO, cat. No. 41956-039) supplemented with 10% heat inactivated fetal bovine calf serum (Amimed, cat. No. 2-01F16-I), 1% L-Glutamine (Invitrogen, cat. No. 25030-02), 1% penicillin-streptomycin (GIBCO, cat. No. 15140-114) at 37° C. in a 5% CO2 and 95% relative humidity atmosphere incubator.
The TSC1−/− cells were trypsinized and counted with a CASY TT cell counter (Schärfe System GmbH, Reutlingen Germany). The cells were diluted in fresh DMEM complete medium and 0.75×10^4 cells/150 μl/well seeded in 96-well TPP-tissue culture plates (TPP, cat. No. 92096). The plates were incubated at 37° C. and 5% CO2 under humidified condition for at least 20 h. Working solutions were prepared freshly as serial 8 step dilutions (vol/vol) in DMSO on the day of the experiment. The working solutions were further diluted 1/5000 in cell culture medium to get final compound concentrations of […]. The final DMSO concentration was kept constant at 0.02%. cell culture medium containing 0.02% DMSO was used as vehicle treatment control. Post incubation, the cells were treated with the serial compound dilution. 50 μl of the compound medium mixture was added to the wells containing cells and 150 μl DMEM medium and incubated for 60 minutes (37° C., 5% CO2). After 60 minutes of incubation, the medium mixture was quickly removed by aspiration. For cell lysis, a mixture of 10% CLB1 CeLyA lysis buffer (Zeptosens, cat. No. 9000), 90% CSBL1 CeLyA spotting buffer (Zeptosens, cat. No. 9020) was freshly prepared and supplemented with 1% Octyl β-D-glucopyranoside (SIGMA, cat. No. 08001-5G) and 1 mM Na-Orthovanadate (Sigma, cat No. S-6508). 50 μl of the described lysis buffer mix was added to each well, followed by 10 minutes of incubation on ice. After an additional freeze-thaw cycle, another 50 μl of the lysis buffer mix without Octyl β-D-glucopyranoside was added to the wells, and 90 μl of the cell lysate was transferred to a 96-well V-bottom plate (Fisher Scientific, cat. No. 6067Y), followed by a centrifugation step (5 min, 1500 rpm at 19° C. in an Eppendorf 5810R centrifuge) to remove the unlysed cell debris.
The spotting of the chips follows the previous described method.
The signal detection and the data analysis follows the previous described method using the pS6 ribosomal protein Ser235/236 (CST, cat. No. #2211) as a primary antibody.

`COc1nc(N2CCNCC2)ccc1-n1c(=O)n(C)c2cnc3ccc(-c4cnc5c(ccn5C)c4)cc3c21` [Example 9.3, 1-(2-Methoxy-6-piperazin-1-yl-pyridin-3-yl)-3-methyl-8-(1-methyl-1H-pyrrolo[2,3-b]pyridin-5-yl)-1,3-dihydro-imidazo[4,5-c]quinolin-2-one] gave an IC50 [1] of 6.5 nM, an IC50 [2] of 52.9 nM and an IC50 [3] of 9.39 nM. For the same molecule, the solubility thermodynamic [4] was 21 µg/mL (≈ 40.3 µM).

For `Cc1cccnc1-n1c(=O)n(C)c2cnc3ccc(-c4cnc5[nH]ccc5c4)cc3c21` [Example 3.2, 3-Methyl-1-(3-methyl-pyridin-2-yl)-8-(1H-pyrrolo[2,3-b]pyridin-5-yl)-1,3-dihydro-imidazo[4,5-c]quinolin-2-one], the IC50 [1] was 58.5 nM, the IC50 [2] was 109 nM and the “HT-perm/logPe pH6.8” value [5] was −5.0. The IC50 [3] was 74.1 nM and the solubility thermodynamic [4] was 14 µg/mL (≈ 34.4 µM).

For `Cc1ccncc1-n1c(=O)n(C)c2cnc3ccc(-c4ccc(N(C)C)nc4)cc3c21` [Example 4.4, 8-(6-Dimethylamino-pyridin-3-yl)-3-methyl-1-(4-methyl-pyridin-3-yl)-1,3-dihydro-imidazo[4,5-c]quinolin-2-one], the IC50 [1] was 167 nM, the IC50 [2] was 894 nM and the “HT-perm/logPe pH6.8” value [5] was −3.8. The IC50 [3] was 300 nM and the solubility thermodynamic [4] was 2 µg/mL (≈ 4.87 µM).

With `CNc1ncc(-c2ccc3ncc4c(c3c2)n(-c2ccc(OC)nc2Cl)c(=O)n4C)cn1` [Example 18.2, 1-(2-Chloro-6-methoxy-pyridin-3-yl)-3-methyl-8-(2-methylamino-pyrimidin-5-yl)-1,3-dihydro-imidazo[4,5-c]quinolin-2-one] the IC50 [1] was 7.8 nM, the IC50 [2] was 12.2 nM and the “HT-Perm logPe pH6.8” value [5] was −3.5. For the same molecule, the IC50 [3] was 7 nM, the solubility thermodynamic [4] was 3 µg/mL (≈ 6.7 µM) and the IC50 [6] was 1 nM.

With `COCCOc1cncc(-c2ccc3ncc4c(c3c2)n(-c2cccnc2C)c(=O)n4C)c1` [Example 2.17, 8-[5-(2-Methoxy-ethoxy)-pyridin-3-yl]-3-methyl-1-(2-methyl-pyridin-3-yl)-1,3-dihydro-imidazo[4,5-c]quinolin-2-one] the IC50 [1] was 85.6 nM, the IC50 [2] was 803 nM and the “HT-perm/logPe pH6.8” value [5] was −4.8. For the same molecule, the IC50 [3] was 491 nM and the solubility thermodynamic [4] was > 441 µg/mL.
